Measured values: patent US20030211170A1, “Use of physiologically acceptable vanadium compounds, salts and complexes” (GHO'ST HOLDING B.V., priority 1997, published 2003)

Tests used:
[1] = test system: deep burn wounds (skin/dermis structures); test: Deep burn wound model in the Yorkshire pig; assay type: in vivo, Yorkshire White; details: administered intravenously in a single dose
Excerpt: The Yorkshire pig has been chosen as the experimental animal because of all animal species this domestic pig seems to be the one with morphological and functional skin characteristics nearest to human skin and so best fulfils the requirements of a model for human skin. In basic architecture it resembles human skin in the relative thickness of the epidermis and dermis, the presence of epidermal ridges, a distinct dermal papillary layer and a deep layer of subdermal fat. Compared to human the elastic fibre content of porcine dermis is relatively low, but higher than in any other species. […] Studies on the proliferation rate of porcine epidermis show parallels with those of humans. The keratinous proteins are similar. Unlike the skin of rodents, the follicular pattern in pigs and humans is relatively sparse and arranged as single hairs or in groups of two or three follicles. […] The regulation of body temperature by the skin is more evident in humans than in the pig. In the skin of the pig no eccrine glands are found. It does have apocrine glands, but their role in thermoregulation remains debatable. The vascular anatomy of pig skin consists of a three layered network; lower, mid-dermal and sub epidermal. The size, orientation and distribution of the vessels are strikingly similar to human skin, but it does differ from humans in that the sub epidermal network is less dense. The vascularisation of the lower region of the follicle corresponds to that in humans. The healing of deep dermal burns, which depends on this phenomenon, might also be analogous. Studies on the thermal properties of porcine skin as a function of depth have been performed by measuring the tissue water content.
Protocol 1a: Twelve identical deep burn wounds were inflicted in each animal. The animal model used is developed in the Burn Research Institute (Beverwijk, The Netherlands) and is a standard for all of the experimental burn wound research. The model is also accepted by the animal experimental commission of the University of Amsterdam. […]

[2] = test system: hearts of phenobarbital anaesthetized rats (myocardial tissue); test: Infarct size after 60 minutes coronary artery occlusion and 180 minutes of reperfusion in anaesthetized rats; assay type: in vivo, rat; details: normothermia (36.5-37.5° C.), 3.3 mg/kg bodyweight i.v. bolus in 10 minutes, 25 minutes prior to CAO, 60 min CAO, 180 min reperfusion, mean ± standard error margin, n=6, P<0.001 vs control (69±2%)
Procedure: Area at risk (AR) and infarcted area (IA) were determined in hearts of phenobarbital anaesthetized rats after 60 minutes coronary artery occlusion (CAO) and 180 minutes of reperfusion. […] The mean AR expressed as percentage of the left yentricle was not different between the control and the experimental group (42±2% and 42±3%, respectively).

SMILES: Cc1occc(=O)c1[O-].Cc1occc(=O)c1[O-].[O]=[V+2] [bis(maltolato)oxovanadium(IV)]
- contractions of scars [1]: considerably reduced
- healing of burn wounds [1]: faster healing
- structures present in the dermis (deep vascular plexus, hair-adnexes (sebaceous glands), sweat glands) [1]: protected
- IA/AR ratio (infarcted area / area at risk) [2]: 45±3%
